US7919484B2, “Combination therapy” (Xenon Pharmaceuticals Inc., priority 2005, dated 2011)

Legend:
[1] = cited from earlier work
SCD = biological target: T1, SCD (Homo sapiens, UniProt O00767); conditions: known from the art; cited from earlier work
T1 sequence (O00767 1-359): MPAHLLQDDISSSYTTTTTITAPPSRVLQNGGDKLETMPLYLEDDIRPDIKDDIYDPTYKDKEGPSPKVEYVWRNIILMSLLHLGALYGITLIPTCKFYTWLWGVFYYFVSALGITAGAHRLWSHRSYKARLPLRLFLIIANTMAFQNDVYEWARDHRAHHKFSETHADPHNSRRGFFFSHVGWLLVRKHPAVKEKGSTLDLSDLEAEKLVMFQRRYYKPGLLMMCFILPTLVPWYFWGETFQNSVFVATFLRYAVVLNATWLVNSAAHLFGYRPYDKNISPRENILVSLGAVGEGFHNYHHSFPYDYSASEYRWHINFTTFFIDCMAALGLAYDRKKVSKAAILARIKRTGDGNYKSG

[2] = Effect of SCD-1 inhibitor and rosiglitazone co-administration on body weight in ZDF rats (Example 1); format: in vivo, Male Zucker Diabetic Fatty Rats (ZDF); conditions: mean +/- SEM, Rosi 10 mg/kg, XEN103 5 mg/kg daily po; for Final Body Weight: end of treatment
Description: Male Zucker Diabetic Fatty Rats (ZDF) began treatment at the age of 7 weeks of age. Animals were housed three to a cage in a temperature, humidity and light controlled room. The animals were fed a standard rodent diet and had free access to water. Animals were randomized into groups of 9 and placed in the following experimental groups for daily dosing (10:30 am) as described in table 5 below. Animals were weighed three times per week. Food intake was recorded three times per week. XEN 1 is a representative SCD-1 inhibitor compound of the invention. The formulations were: • Vehicle=1% CMC:0.1% Tween 20:10% PG • Rosi-10=rosiglitazone 10 mg/kg in 1% CMC:0.1% Tween 20:10% PG • Rosi-10+XEN1=rosiglitazone 10 mg/kg+XEN1 5 mg/kg in 1% CMC:0.1% Tween 20:10% PG • XEN1=XEN1 5 mg/kg in 1% CMC:0.1% Tween 20:10% PG

SCD enzyme = biological target: T2, SCD enzyme (Rattus norvegicus, UniProt P07308); experiment: Plasma desaturation index (DI) in ZDF rats after treatment (Example 2); format: in vivo; conditions: plasma triglycerides, mean +/- standard deviation, rosiglitazone 10 mg/kg, XEN1 5 mg/kg
T2 construct: indicator of endogenous SCD1 activity; from tissue; host or cells: living male Zucker Diabetic Fatty rats, dosed orally
T2 sequence (P07308 1-358): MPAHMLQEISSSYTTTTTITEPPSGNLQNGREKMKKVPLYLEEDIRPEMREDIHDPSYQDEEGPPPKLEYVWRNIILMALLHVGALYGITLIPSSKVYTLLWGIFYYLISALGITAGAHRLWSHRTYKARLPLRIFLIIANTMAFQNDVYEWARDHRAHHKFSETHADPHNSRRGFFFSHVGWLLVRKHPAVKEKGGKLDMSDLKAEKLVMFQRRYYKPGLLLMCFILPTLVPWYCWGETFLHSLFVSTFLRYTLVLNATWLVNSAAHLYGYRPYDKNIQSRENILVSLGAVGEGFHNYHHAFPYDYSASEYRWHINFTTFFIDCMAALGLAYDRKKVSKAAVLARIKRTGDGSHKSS
Description: Another suitable method is to indirectly measure the SCD-1 inhibitors impact on inhibition of SCD enzyme by measuring a subject's desaturation index (‘DI’) after administration of the SCD-1 inhibitors. DI as employed in this specification means the ratio of the product over the substrate for the SCD enzyme as measured from a given tissue sample. This may be calculated using three different equations 18:1n−9/18:0 (oleic acid over stearic acid); 16:1n−7/16:0 (palmitoleic acid over palmitic acid); and/or 16:1n−7+18:1n−7/16:0 (measuring all reaction products of 16:0 desaturation over 16:0 substrate). DI is primarily measured in liver or plasma triglycerides, but may also be measured in other selected lipid fractions from a variety of tissues.
Desaturation indexes were calculated from the fatty acid profile of circulating plasma triglycerides. […] An additional 0.5 mL of chloroform containing 0.05 mg/mL of glyceryl-triheptadecanoin as an internal standard were also added. Samples were thoroughly vortexed and the phases separated by centrifugation at 2000 rpm for 8 minutes. […]
3 desaturation indexes were calculated from the chromatograms based on absolute peak areas; the ratio of palmitoleic acid to palmitic acid (C16:1n7/C16:0), the ratio of oleic acid to stearic acid (C18:1n9/C18:0) and the ratio of palmitoleic acid and vaccenic acid to palmitic acid (C16:1n7+C18:1n7/C16:0).

| Structure (SMILES) | Inhibition of SCD activity (in words) (SCD) | Final Body Weight [2] [g] | Body Weight Gain - 5 week treatment [2] [g] | other results |
| --- | --- | --- | --- | --- |
| CC(=O)O[C@]1(C(C)=O)CC[C@H]2[C@@H]3C[C@H](C)C4=CC(=O)CC[C@]4(C)[C@H]3CC[C@@]21C [medroxyprogesterone acetate] |  |  |  | Side Effect: increase in body weight ([1]; 6 months): 6.2% increase in |
| CCCCCCCCC1=C(CCCCCCCC(=O)O)C1 [Sterculic acid, 8-(2-octylcyclopropenyl)octanoic acid] | non-specifically inhibit SCD activity |  |  |  |
| N[C@@H]1C[C@H]1c1ccccc1 (racemic) [Tranylcypromine] |  |  |  | Side Effect (in words) ([1]; human, in vivo): Adverse weight |
| O=C(NCCC1CC1)c1ccc(N2CCN(C(=O)c3cc(F)ccc3C(F)(F)F)CC2)nn1 [XEN 1] |  | 312.2 ± 5.1 | 150.7 ± 3.5 | Plasma desaturation index (DI) C16:1n7/C16:0 (SCD enzyme): 0.043 +/− 0.004; Plasma desaturation index (DI) C18:1n9/C18:0 (SCD enzyme): 5.874 +/− 0.422 |
| CCCCCCCCC1=C(CCCCCCC(=O)O)C1 [malvalic acid, 7-(2-octylcyclopropenyl)heptanoic acid] | non-specifically inhibit SCD activity |  |  |  |
| CN(CCOc1ccc(CC2SC(=O)NC2=O)cc1)c1ccccn1 (centres unmarked) [rosiglitazone] |  | 485.3 ± 7.3 | 321.9 ± 6.5 | Weight gain associated with low-dose treatment ([1]; 4 mg/day, after one year treatment): about 8 kg/year |
